From PubChem BioAssay AID1845199 (Molecular Pharmacology Branch, DTP, NCI, 2023)
pIC50: −log10 of the molar value. Several values for one entry are separate records, joined by “and”; a condition that tells them apart may be missing. Equal values may be shown once.

System: 556581-035-R-J1 tumor spheroid viability, % test/control
Assay: Anticancer human tumor 556581-035-R-J1 patient-derived ovarian carcinoma cell line growth inhibition
Details: spheroids with HUVEC and MSC; for viability, T/C: stronger effect = lower value
Excerpt: Multicellular complex tumor spheroid response to DNA repair inhibitors in combination with DNA-damaging drugs
This study explores the anticancer activities of DNA-damaging drugs and inhibitors of DNA damage repair, both as single agents and in combinations. Complex tumor spheroids comprised of malignant cells, endothelial cells and mesenchymal stem cells served as an in vitro model for human solid tumors. This model system incorporates physiologically relevant features and patient-derived or established malignant cell lines with clinically relevant genetic alterations from many tumor types. Twenty-six patient-derived or established malignant cell lines were evaluated representing sarcoma, melanoma, small cell lung cancer (SCLC), non-small cell lung cancer (NSCLC), as well as bladder, ovarian and pancreatic cancers. The concentration ranges selected for each drug and investigational agent were based upon clinically achievable concentrations if the clinical Cmax of the agent was known.
Compounds. The drugs and compounds olaparib (NSC753686), talazoparib (NSC767125), berzosertib (NSC777718), elimusertib (NSC800525), nedisertib (NSC802822), VX-984 (NSC792969), AZD-1390 (NSC803789), temozolomide (NSC362856), topotecan (NSC609699), trabectedin (NSC813783), staurosporine (NSC755774), and gemcitabine (NSC613327) were obtained from the National Cancer Institute (NCI) Developmental Therapeutics Program Chemical Repository. The FDA-approved anticancer drug set is available from the Developmental Therapeutics Program at https://dtp.cancer.gov/organization/dscb/obtaining/available_plates.htm. […] The stock solutions were prepared in dimethyl sulfoxide (DMSO, Sigma-Aldrich, St. Louis, MO, cat. D2650) at 400-fold the tested concentration and stored at -70 degrees C. Prior to their use, the stock solutions were diluted in fresh medium and the final DMSO concentration in the assay was 0.25% (v/v). All drugs and investigational agents were tested over a range starting from a high concentration at or near the clinical Cmax and decreasing in half-log increments. If the clinical Cmax for an agent had not been determined, the highest concentration tested was 10 microM.
Cell Lines. The patient-derived cancer cell (PDC) lines: 156681-154-R-J1-PDC, 283228-195-R-J1-PDC, 287954-098-R-J1-PDC, 292921-168-R-J2-PDC, 349418-098-R-PDC, 425362-245-T-J1-PDC, 556581-035-R-J1-PDC, and BL0293-F563-PDC were received from the NCI Patient-Derived Models Repository (PDMR, https://pdmr.cancer.gov). The established cell lines HS-SY-2 (RRID:CVCL_8719), MPNST, and SYO-1 (RRID:CVCL_7146) were obtained from the Sloan Kettering Institute. The alveolar soft parts sarcoma cell line ASPS-1 (RRID:CVCL_S738) was established at the NCI and grown from internal seed stocks. The following established cell lines were purchased from the American Type Culture Collection (ATCC, Manassas, VA): G-401 (ATCC, cat. CRL-1441, RRID:CVCL_0270), SW982 (ATCC, cat. HTB-93, RRID:CVCL_1734), VA-ES-BJ (ATCC, cat. CRL-2138, RRID:CVCL_1785), NCI-H719 (ATCC, cat. CRL-5837, RRID:CVCL_1582), NCI-H196 (ATCC, cat. CRL-5823, RRID:CVCL_1509), NCI-H841 (ATCC, cat. CRL-5845, RRID:CVCL_1595), NCI-H1618 (ATCC, cat. CRL-5879, RRID:CVCL_1480), NCI-H1876 (ATCC, cat. CRL-5902, RRID:CVCL_1503), DMS 114 (ATCC, cat. CRL-2066; RRID:CVCL_1174), NCI-H211 (ATCC, cat. CRL-5824; RRID:CVCL_1529), and SW 1271 (ATCC, cat. CRL-2177, RRID:CVCL_1716). The small cell lung cancer cell line COR-L88 was purchased from Sigma-Aldrich (cat. 92031917-1VL, RRID:CVCL_1141). The non-small cell lung cancer cell lines NCI-H226 (RRID:CVCL_1544) and NCI-H322M (RRID:CVCL_1557) were established at the NCI and grown from internal seed stocks. Pooled donor human umbilical vein endothelial cells (HUVEC, Lonza, cat. CC-2519) and human mesenchymal stem cells (hMSC, Lonza, cat. PT-2501) were purchased from Lonza (Walkersville, MD).
Cell Culture. All cells were maintained in an incubator at 37 degrees C and 5% CO2 with 95% humidity. […]

[1] = compound alone, run of 10/17/2019
[2] = compound alone, run of 10/25/2019
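Further: spheroids exposed to compounds for 7 days before viability read.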

`CC(C)n1c(=O)n(C)c2cnc3cc(F)c(-c4ccc(OCCCN5CCCCC5)nc4)cc3c21` was tested, and the viability, T/C (compound 0.0316 µM) was 104% and 103% and 102%, the viability, T/C (compound 0.1 µM) was 109% and 106% and 112% and the viability, T/C (compound 0.316 µM) was 95.9% and 108% and 103%. The viability, T/C (compound 1 µM) was 105% and 114% and 101%, the viability, T/C (compound 3.16 µM) was 100% and 99.6% and 95.5% and the viability, T/C (compound 10 µM) was 74.3% and 73.2% and 69%. The pIC50 (curve of compound) was under 5.00.
For `CC1COCCN1c1cc(-c2ccnn2C)c2ccnc(-c3ccn[nH]3)c2n1` (stereo not given), the viability, T/C (compound 0.0316 µM) was 95.7% and 92.7% and 89.5%, the viability, T/C (compound 0.1 µM) was 76.3% and 75.8% and 79.5% and the viability, T/C (compound 0.316 µM) was 56.5% and 57.8% and 55.5%. For the same compound, the viability, T/C (compound 1 µM) was 45.5% and 44.4% and 41.9%, the viability, T/C (compound 3.16 µM) was 39.9% and 39% and 33.9% and the viability, T/C (compound 10 µM) was 35.6% and 32.5% and 30.2%. The pIC50 (curve of compound) was 6.20 and 6.19 and 6.28.
In the case of `CC[C@@]1(O)C(=O)OCc2c1cc1n(c2=O)Cc2cc3c(CN(C)C)c(O)ccc3nc2-1`, the viability, T/C (compound 0.003 µM) was 101% [middle of 10 runs], the viability, T/C (compound 0.03 µM) was 74.6% [middle of 10 runs] and the viability, T/C (compound 0.0949 µM) was 58.5% [middle of 10 runs]. The viability, T/C (compound 0.3 µM) was 16.5% [middle of 10 runs], the IC50 [1] was 121 nM [middle of 4 runs] and the IC50 [2] was 80.7 nM [middle of 5 runs].
`CNCc1ccc(-c2cc(-c3nc(-c4ccc(S(=O)(=O)C(C)C)cc4)cnc3N)on2)cc1` was tested, and the viability, T/C (compound 0.00949 µM) was 107% and 97.6% and 104%, the viability, T/C (compound 0.03 µM) was 105% and 95.6% and 111% and the viability, T/C (compound 0.0949 µM) was 103% and 115% and 108%. For the same compound, the viability, T/C (compound 0.3 µM) was 106% and 112% and 108%, the viability, T/C (compound 0.949 µM) was 66.6% and 80.3% and 75.4% and the viability, T/C (compound 3 µM) was 20.2% and 19.4% and 27.6%. The pIC50 (curve of compound) was 5.84 and 5.77 and 5.76.
For `COc1cc(C)[nH]c(=O)c1CN1CCc2c(Cl)cc(C(OC)C3COC3)c(Cl)c2C1=O` (stereo not given), the viability, T/C (compound 0.0316 µM) was 103% and 105% and 98.8%, the viability, T/C (compound 0.1 µM) was 110% and 101% and 105% and the viability, T/C (compound 0.316 µM) was 107% (2×) and 99.8%. The viability, T/C (compound 1 µM) was 111% and 108% and 102%, the viability, T/C (compound 3.16 µM) was 114% and 107% and 96.9% and the viability, T/C (compound 10 µM) was 106% and 99.4% and 98.3%. For the same compound, the pIC50 (curve of compound) was under 5.00.
In the case of `COc1cc2c(cc1O)CCNC21CSC2c3c(OC(C)=O)c(C)c4c(c3C(COC1=O)N1C(O)C3Cc5cc(C)c(OC)c(O)c5C(C21)N3C)OCO4` (stereo not given), the viability, T/C (compound 94.9 pM) was 106% [middle of 10 runs], the viability, T/C (compound 0.0003 µM) was 95.4% [middle of 10 runs] and the viability, T/C (compound 0.000949 µM) was 41% [middle of 10 runs]. The viability, T/C (compound 0.003 µM) was 0.66% [middle of 10 runs] and the IC50 [2] was 0.795 nM [middle of 10 runs].
In the case of `COc1ccc([C@@H](O)c2cc(-c3ncnc4cc(N5CCOCC5)ccc34)c(F)cc2Cl)nn1`, the viability, T/C (compound 0.0316 µM) was 103% and 102% and 98.8%, the viability, T/C (compound 0.1 µM) was 104% and 111% and 99.6% and the viability, T/C (compound 0.316 µM) was 81.3% and 90.1% and 91%. For the same compound, the viability, T/C (compound 1 µM) was 61.1% and 70.3% and 64.7%, the viability, T/C (compound 3.16 µM) was 40.9% and 49.5% and 41.4% and the viability, T/C (compound 10 µM) was 31.9% and 35.1% and 31.1%. The pIC50 (curve of compound) was 5.74 and 5.55 and 5.69.
With `Cc1cc(C)c(CNC(=O)c2cc(-c3ccc(CN4CCOCC4)cc3)cc3c2cnn3C2CCCC2)c(=O)[nH]1` the viability, T/C (compound 0.0316 µM) was 103% and 104% and 86.6%, the viability, T/C (compound 0.1 µM) was 108% and 103% and 97.3% and the viability, T/C (compound 0.316 µM) was 112% and 108% and 97.3%. The viability, T/C (compound 1 µM) was 115% and 102% and 120%, the viability, T/C (compound 3.16 µM) was 104% and 105% and 107% and the viability, T/C (compound 10 µM) was 89.3% (2×) and 93.4%. It also gave a pIC50 (curve of compound) of under 5.00.
For `Cc1sc2c(c1C)C(c1ccc(Cl)cc1)=NC(CC(=O)Nc1ccc(O)cc1)c1nnc(C)n1-2` (stereo not given), the viability, T/C (compound 0.00949 µM) was 102% and 101% and 103%, the viability, T/C (compound 0.03 µM) was 98.1% and 83.8% and 103% and the viability, T/C (compound 0.0949 µM) was 82.5% and 90.3% and 88.8%. For the same compound, the viability, T/C (compound 0.3 µM) was 74.5% and 89.5% and 82.5%, the viability, T/C (compound 0.949 µM) was 71.8% and 76.6% and 76% and the viability, T/C (compound 3 µM) was 66.2% and 70.1% and 71.4%. The pIC50 (curve of compound) was under 5.52.
For `Cn1ncnc1[C@H]1c2n[nH]c(=O)c3cc(F)cc(c23)N[C@@H]1c1ccc(F)cc1`, the viability, T/C (compound 0.00949 µM) was 110% and 95.9% and 100%, the viability, T/C (compound 0.03 µM) was 107% and 97.1% and 105% and the viability, T/C (compound 0.0949 µM) was 102% and 89.2% and 95.8%. The viability, T/C (compound 0.3 µM) was 97.6% and 80.2% and 83.6%, the viability, T/C (compound 0.949 µM) was 77.9% and 69.9% and 76% and the viability, T/C (compound 3 µM) was 60.8% and 52.1% and 56.5%. It also gave a pIC50 (curve of compound) of under 5.52.
For `Cn1nnc2c(C(N)=O)ncn2c1=O`, the viability, T/C (compound 1 µM) was 103% [middle of 10 runs], the viability, T/C (compound 10 µM) was 104% [middle of 10 runs] and the viability, T/C (compound 31.6 µM) was 107% [middle of 10 runs]. The pIC50 [1] was under 4.00.
In the case of `O=C(c1cc(Cc2n[nH]c(=O)c3ccccc23)ccc1F)N1CCN(C(=O)C2CC2)CC1`, the viability, T/C (compound 0.0949 µM) was 100% and 105% and 95.8%, the viability, T/C (compound 0.3 µM) was 97.9% and 107% and 110% and the viability, T/C (compound 0.949 µM) was 98.4% and 102% and 100%. For the same compound, the viability, T/C (compound 3 µM) was 90% and 103% and 96.5%, the viability, T/C (compound 9.49 µM) was 75.5% and 90.5% and 81.3% and the viability, T/C (compound 30 µM) was 64.7% and 72.9% and 67.7%. The pIC50 (curve of compound) was under 4.52.
`[2H]c1nc(C)nc([2H])c1-c1cc(NC[C@@H](C)c2cccc3c(C(=O)NC)ccnc23)ncn1` was tested, and the viability, T/C (compound 0.0316 µM) was 112% and 111% and 102%, the viability, T/C (compound 0.1 µM) was 111% and 107% (2×) and the viability, T/C (compound 0.316 µM) was 108% and 109% and 110%. For the same compound, the viability, T/C (compound 1 µM) was 113% and 105% and 101%, the viability, T/C (compound 3.16 µM) was 116% and 106% and 105% and the viability, T/C (compound 10 µM) was 115% and 111% and 105%. For the same compound, the pIC50 (curve of compound) was under 5.00.
